Experimental findings from PubChem BioAssay AID1963442 (Molecular Pharmacology Branch, DTP, NCI, 2024) are described below.

This test has as its system MPNST complex spheroid with HUVEC/MSC, growth, % test/control. The experiment in a line: Anticancer human tumor MPNST cell line growth inhibition [Asc].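 As to all read-outs here: compounds left on spheroids for seven days before reading.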 The note with it: for viability, T/C: stronger effect = lower value. As to the method:
Multicellular complex tumor spheroid response to apoptosis pathway targeting inhibitors Alrizomadlin, Pelcitoclax, and Dasminapant in combination with a variety of drugs and investigational agents in selected tumor cell lines
The MDM2 inhibitor alrizomadlin, the Bcl-2/Bcl-xL inhibitor pelcitoclax, and the IAPs inhibitor dasminapant were evaluated both individually and in combination with standard of care and investigational anticancer small molecules within a complex spheroid model of solid tumors. . Complex spheroids include a stromal component modeled by human endothelial cells (HUVEC) and fibroblasts modeled by human mesenchymal stem cells (MSCs). The concentration ranges selected for each drug and investigational agent were based upon clinically achievable concentrations if the clinical Cmax of the agent was known.
Compounds. The drugs and investigational agents: alrizomadlin (APG-115; NSC831270), pelcitoclax (APG-1252; NSC835773), dasminapant (APG-1387;NSC834197), TAK-243 (NSC785004), copanlisib (NSC809693), olaparib (NSC753686), talazoparib (NSC767125), cobimetinib (NSC 768068), eltanexor (KPT-8602, NSC 794443), abemaciclib (NSC 768073), sotorasib (NSC818433), adagrasib (NSC 831453), MRTX-1133 (NSC 836407), Iadademestat (ORY1001, NSC 806812), and RMC-4630 (NSC839698), were obtained from the NCI Developmental Therapeutics Program Chemical Repository. The FDA-approved anticancer drug set is available from the Developmental Therapeutics Program at https://dtp.cancer.gov/organization/dscb/obtaining/available plates.htm. […] The stock solutions were prepared in dimethyl sulfoxide (DMSO, Sigma-Aldrich, St. Louis, MO, cat. D2650) at 800-fold the tested concentration and stored at -70 degrees C prior to their use. All drugs and investigational agents were tested over a range starting from a high concentration at or near the clinical Cmax and decreasing in half-log increments. If the clinical Cmax for an agent had not been determined, the highest concentration tested was 10 microM.
The patient-derived cancer (PDC) cell lines include five colon adenocarcinomas: 186277-243-T-J2-PDC, 616215-338-R-J1-PDC, 439559-082-T-J2-PDC, 463943-066-T-J2-PDC, and 519858-162-T-J1-PDC; three pancreatic carcinomas: 323965-272-R-J2-PDC, 521955-158-R6-J3-PDC, and 521955-158-R2-J5-PDC; two uterine sarcomas: 327498-152-R-J2-PDC and 993429-296-R-J1-PDC; two rhabdomyosarcomas: 755483-174-R-J1-PDC and 772245-204-R-J1-PDC; two soft tissue sarcomas: 126254-015-R-J1-PDC and 494315-158-R-J1-PDC; two malignant fibrous histiocytomas: 317291-083-R-J1-PDC and 596521-263-R-J1-PDC; two breast carcinomas: 171881-019-R-J1-PDC and 885512-296-R-J2-PDC; and one ovarian carcinoma: 6556581-035-R-J-PDC were obtained from the NCI PDMR, (https://pdmr.cancer.gov). The established cell lines HSSY-2 synovial sarcoma (RRID:CVCL 8719), SYO-1 synovial sarcoma (RRID:CVCL_7146), MPNST malignant peripheral neural sheath tumor were obtained from the Sloan Kettering Institute. The following established cell lines were purchased from the American Type Culture Collection (ATCC, Manassas, VA), Sor the received from the NCI repository:, PANC-1 pancreatic carcinoma (CRL-1469, RRID:CVCL_0480), OVCAR-5 ovarian carcinoma (RRID:CVCL_1628), OVCAR-8 ovarian carcinoma (RRID:CVCL_1629), , MCF-7 breast carcinoma (CRL-12584, RRID:CVCL_0031), MDA-MB-231 breast carcinoma (CRL-12532, RRID:CVCL_0062), NCI-H1876 small cell lung carcinoma (CRL-5902, RRID:CVCL_1503), NCI-H510A small cell lung carcinoma (HTB-184, RRID:CVCL_1565), NCI-H1417 (CRL-5869, RRID:CVCL_1469), and NCI-H196 small cell lung carcinoma (CRL-5823, RRID:CVCL_1509). Dr. Peter Houghton (Greehey Children's Cancer Research Institute, University of Texas Health Science Center, San Antonio, TX) provided Rh-18 rhabdomyosarcoma (RRID:CVCL_1659). Pooled donor human umbilical vein endothelial cells (HUVEC, Lonza, cat. CC-2519) and human mesenchymal stem cells (hMSC, Lonza, cat. PT-2501) were purchased from Lonza (Walkersville, MD).
Cell Culture. […]

Setting [1] is: compound alone, run of 10/11/2022.

Where “and” joins values, the source holds several entries; their conditions need not be identical. Equal entries are not always repeated.

Turning to `C#Cc1c(F)ccc2cc(O)cc(-c3ncc4c(N5CC6CCC(C5)N6)nc(OCC56CCCN5CC(F)C6)nc4c3F)c12` (stereo not given), the viability, T/C (commonly the ratio of treated to control) (compound 0.0316 µM) is 76.6% and 93.8% and 88.8%; the viability, T/C (compound 0.1 µM) was 87% and 113% and 69.2%; the viability, T/C (compound 0.316 µM) was 74.9% and 107% and 83.5%; the viability, T/C (compound 1 µM) is 61.2% and 94.7% and 70.7%; the viability, T/C (compound 3.16 µM) is 88% and 93.3% and 87.2%; the viability, T/C (compound 10 µM) is 50% and 97.8% and 110%. Further, the IC50 (commonly the concentration that inhibits the measured activity by half) (curve of compound) was more than 10000 nM.
In the case of `C=C(F)C(=O)N1CCN(c2nc(OCC3CCCN3C)nc3c2CCN(c2cccc4cccc(Cl)c24)C3)CC1CC#N` (stereo not given), the viability, T/C by setting is: (compound 0.0316 µM) 65.6% and 93.2% and 99.3%; (compound 0.1 µM) 75% and 68.3% and 86.5%; (compound 0.316 µM) 90.8% and 73% and 75.3%; (compound 1 µM) 85% and 68.2% and 94.8%; (compound 3.16 µM) 48.5% and 60.2% and 82.2%. Also, the IC50 (curve of compound) was 2990 nM and > 10000 nM.
As for `C=CC(=O)N1CCN(c2nc(=O)n(-c3c(C)ccnc3C(C)C)c3nc(-c4c(O)cccc4F)c(F)cc23)C(C)C1` (stereo not given), the viability, T/C reads like this: (compound 0.0316 µM) 99.3% and 91.7% and 80.4%; (compound 0.1 µM) 81% and 76.5% and 90.9%; (compound 0.316 µM) 99% and 90.2% and 92.3%; (compound 1 µM) 87.4% and 78.7% and 108%; (compound 3.16 µM) 104% and 121% (2×); (compound 10 µM) 101% and 143% and 119%. Besides, the IC50 (curve of compound) was more than 10000 nM.
For the compound `CCN1C(C(=O)NC23CCC(C(=O)O)(CC2)CC3)C(c2cccc(Cl)c2F)C2(C(=O)Nc3cc(Cl)ccc32)C12CCCCC2` (stereo not given), the viability, T/C (compound 0.00949 µM) was 86.6% and 74.5%. In addition, the IC50 runs as follows: under setting [1], more than 3000 nM; (curve of compound) 1810 nM and > 3000 nM.
In the case of `CCN1CCN(Cc2ccc(Nc3ncc(F)c(-c4cc(F)c5nc(C)n(C(C)C)c5c4)n3)nc2)CC1`, the viability, T/C by setting is: (compound 0.00316 µM) 73% and 74.2% and 85.2%; (compound 0.01 µM) 91.6% and 72.8% and 69.6%; (compound 0.0316 µM) 92.8% and 78.2% and 78.8%; (compound 0.1 µM) 70.1% and 54% and 60.7%; (compound 0.316 µM) 84.9% and 63% and 78.3%; (compound 1 µM) 92.1% and 65.1% and 69%. Besides, for the setting “curve of compound”, the IC50 was more than 1000 nM.
For the compound `CNC(C)C(=O)NC1CN(S(=O)(=O)c2cccc(S(=O)(=O)N3CCC4CCC(C(=O)NC(c5ccccc5)c5ccccc5)N4C(=O)C(NC(=O)C(C)NC)C3)c2)CCC2CCC(C(=O)NC(c3ccccc3)c3ccccc3)N2C1=O` (stereo not given), the IC50 (curve of compound) was more than 1000 nM.
Regarding `COc1c(OCCCN2CCOCC2)ccc2c3n(c(=NC(=O)c4cnc(N)nc4)nc12)CCN3`, the viability, T/C runs as follows: (compound 0.00316 µM) 84.8% and 70.3% and 54.3%; (compound 0.01 µM) 97% and 81% and 50.6%; (compound 0.0316 µM) 70.7% and 52.5% and 38.8%; (compound 0.1 µM) 39.8% and 39.5% and 13.7%; (compound 0.316 µM) 31.4% and 24.9% and 9.45%; (compound 1 µM) 24% and 18.9% and 5.21%. Besides, the IC50 (curve of compound) is 68.7 nM and 49.5 nM and 11.5 nM.
Consider `Cc1c(S(C)(=O)=O)c(-c2cc(F)cc(N3CCN(c4ccc(NS(=O)(=O)c5ccc(NC(CCN6CCC(C(=O)OCCCP(=O)(O)O)CC6)CSc6ccccc6)c(S(=O)(=O)C(F)(F)F)c5)cc4)CC3)c2)c(-c2ccc(Cl)cc2)n1C(C)C` (stereo not given), for which the IC50 under setting [1] is more than 10000 nM.
For `Cc1nc(N2CCC3(CC2)COC(C)C3N)c(CO)nc1Sc1ccnc(N)c1Cl` (stereo not given), the viability, T/C by setting is: (compound 0.00949 µM) 64.8% and 95.2% and 81.6%; (compound 0.03 µM) 69.3% and 115% and 93.2%; (compound 0.0949 µM) 81% and 125% and 89.5%; (compound 0.3 µM) 48.4% and 109% and 92%; (compound 0.949 µM) 55.7% and 115% and 93.5%; (compound 3 µM) 18.5% and 86.6% and 80.5%. Also, the IC50 (curve of compound) was 964 nM and > 3000 nM.
Consider `Cn1ncnc1[C@H]1c2n[nH]c(=O)c3cc(F)cc(c23)N[C@@H]1c1ccc(F)cc1`, for which the viability, T/C (compound 0.000316 µM) was 96.5% and 77% and 100%; the viability, T/C (compound 0.001 µM) was 85.1% and 66.4% and 78.8%; the viability, T/C (compound 0.00316 µM) was 81.7% and 67.3% and 52.8%; the viability, T/C (compound 0.01 µM) is 80.5% and 61.2% and 65.7%; the viability, T/C (compound 0.0316 µM) is 70% and 42.6% and 64.6%; the viability, T/C (compound 0.1 µM) is 75.9% and 56.8% and 44%. In addition, the IC50 (curve of compound) was > 100 nM and 30.7 nM.
As for `NC(=O)C(=Cn1cnc(-c2cc(C(F)(F)F)cc(C(F)(F)F)c2)n1)c1cncnc1`, the viability, T/C was 66.2% and 56.3% and 21.6% (compound 0.000949 µM); 90% and 89% and 18% (compound 0.003 µM); 81.3% and 73.5% and 18.6% (compound 0.00949 µM); 67.2% and 38.9% and 20.1% (compound 0.03 µM); 61.8% and 57.6% and 17.8% (compound 0.0949 µM); 53.9% and 40.3% and 22.3% (compound 0.3 µM).
With `NC1CCC(NC2CC2c2ccccc2)CC1` (stereo not given), the viability, T/C reads like this: (compound 0.000316 µM) 78.8% and 74.6% and 64.2%; (compound 0.001 µM) 78.6% and 79.4% and 71.8%; (compound 0.00316 µM) 76.3% and 81% and 80.4%; (compound 0.01 µM) 74% and 88.9% and 68.4%; (compound 0.0316 µM) 83.4% and 76.8% and 64.2%; (compound 0.1 µM) 78.2% and 98.4% and 47.2%. In addition, for the setting “curve of compound”, the IC50 was > 100 nM and 82.7 nM.
For the compound `O=C(c1cc(Cc2n[nH]c(=O)c3ccccc23)ccc1F)N1CCN(C(=O)C2CC2)CC1`, the viability, T/C (compound 0.0316 µM) was 89.3% and 114% and 79.2%; the viability, T/C (compound 0.1 µM) was 103% and 78.6% and 69.5%; the viability, T/C (compound 0.316 µM) was 109% and 60.3% and 96.9%; the viability, T/C (compound 1 µM) was 83.9% and 63.7% and 82.7%; the viability, T/C (compound 3.16 µM) is 71.8% and 70.9% and 40.7%; the viability, T/C (compound 10 µM) was 77.1% and 48.1% and 34.8%. Further, where the note is “curve of compound”, the IC50 is > 10000 nM and 2440 nM.
As for `O=C(c1ccc(F)c(F)c1Nc1ccc(I)cc1F)N1CC(O)([C@@H]2CCCCN2)C1`, the viability, T/C is 100% and 84.6% and 73.2% (compound 0.00316 µM); 60.5% and 110% and 78.5% (compound 0.01 µM); 58.9% and 123% and 126% (compound 0.0316 µM); 65.1% and 103% and 84.6% (compound 0.1 µM); 67.3% and 72% and 85.4% (compound 0.316 µM); 13.1% and 29.3% and 32.3% (compound 1 µM). Further, under “curve of compound”, the IC50 was 448 nM and 572 nM and 682 nM.
